# Results from patent US20140127705A1, “METHOD FOR SCREENING SUBSTANCES HAVING WEIGHT-REGULATING ACTION” (priority 2011, published 2014).
# Test system: 3T3-L1 cells
# Experiment: Induction of adipocyte differentiation in 3T3-L1 cells, Oil Red O staining
# Format: cell-based
# Settings: 10 μM LS-102 added at induction of differentiation (IBMX, dexamethasone, insulin) and again at the medium change, DMSO control, microscope (FIG. 5)
# Method: 3T3-L1 cells were cultured for 3 days after reaching confluence in DMEM (10% FBS, High Glucose). Differentiation was induced by adding 500 μM IBMX, 1 μM dexamethasone and 5 μg/ml of insulin. 10 μM LS-102 (synoviolin ubiquitination activity inhibitor) or DMSO were added at the same time. After culturing for 3 days, the medium was replaced with medium containing 4 μg/ml of insulin followed by the addition of 10 μM LS-102 or DMSO. After again culturing for 3 days, the medium was replaced with DMEM (10% FES, High Glucose) followed by additionally culturing for 3 days. With respect to siRNA, 200 pmol of siRNA Syno770 was introduced using Lipofectamine 2000 two days prior to inducing differentiation.
# After washing the 3T3-L1 cells with PBS(−), the cells were fixed with 10% formalin. The cells were then washed with PBS(−) and transferred to 60% isopropanol. The cells were stained for 20 minutes with 18 mg/ml of Oil Red O/Isopropanol and then washed with 60% isopropanol and PBS(−) followed by observing with a microscope.
structure (smiles),measurement,value
CCNCCN(CC)c1nc(Nc2ccc3ncoc3c2)nc(N[C@@H](C)C2CCCCC2)n1 [LI102],number of differentiated adipocytes in comparison with the control,the number of differentiated adipocytes was lower in comparison with the control
